Results published in US10900063B2, “Measurement of Lp-PLA2 activity” (ASAHI KASEI PHARMA CORPORATION, priority 2016, dated 2021).
Substitutions are numbered along the chain they refer to. Names may count otherwise. One block for each molecule: values may come before it.

Columns and labels:
Type in all cases: biochemical
[1] = target: T1, Lp-PLA2 (Homo sapiens, UniProt Q13093); experiment: Lp-PLA2 activity measurement in serum/plasma with reagents of the invention (PAF substrate, lyso-PAF-PLD, choline oxidase, peroxidase colorimetry); settings: Example 9; for Lp-PLA2 activity value / absorbance change per minute (sensitivity): 10 mM substrate in R2; for Relative activity: PAF(C16) = 100
T1 construct: Individual serum No. 16, individual serum No. 78; from tissue; host or cells: serum and plasma (individual sera, pooled sera, heparin and citrated pooled plasma)
T1 sequence (Q13093 22-441): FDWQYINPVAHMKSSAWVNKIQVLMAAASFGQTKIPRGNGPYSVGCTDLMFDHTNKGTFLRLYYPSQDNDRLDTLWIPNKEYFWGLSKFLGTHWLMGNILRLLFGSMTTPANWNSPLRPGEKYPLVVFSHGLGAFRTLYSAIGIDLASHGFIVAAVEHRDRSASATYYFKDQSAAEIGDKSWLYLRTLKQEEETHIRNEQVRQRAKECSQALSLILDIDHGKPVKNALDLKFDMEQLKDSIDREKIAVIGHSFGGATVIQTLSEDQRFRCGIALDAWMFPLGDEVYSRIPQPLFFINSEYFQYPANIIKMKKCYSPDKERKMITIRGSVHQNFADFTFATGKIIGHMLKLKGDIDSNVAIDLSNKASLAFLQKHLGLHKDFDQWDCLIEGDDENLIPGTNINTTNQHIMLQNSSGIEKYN
Experimental: Unless otherwise specified, in these examples the Method 1 described under 1) below is used for calculating Lp-PLA2 activity values. In these examples, (nmol/min/mL) is sometimes expressed as (U/L).
This is calculated by the following formula based on the absorbance change per minute (ΔmAbs/min) as calculated from absorbance at the measuring points and the millimolar extinction coefficient (ε=36) of TODB at 546 nm.
(§1) 4 μL of the sample was mixed with 160 μL of the R1 reagent, and incubated for 5 minutes at 37° C. (measuring points 1 to 16), after which 40 μL of the R2 reagent was added to initiate a reaction (measuring point 17). The absorbance of water (blank) at the same measuring points was subtracted from the absorbance of the sample about 3.6 to 4.5 minutes after the reaction was initiated by addition of the R2 reagent (measuring points 30 to 33) to calculate the absorbance change per minute (ΔmAbs/min), and the Lp-PLA2 activity value (nmol/min/mL) was calculated according to the previous formula.
[…] was mixed with 150 μL of the R1 reagent, and incubated for 5 minutes at 37° C. (measuring points 1 to 15), after which 100 μL of the R2 reagent was added to initiate a reaction (measuring point 16). The absorbance of water (blank) at the same measuring points was subtracted from the absorbance of the sample about 2 to 3 minutes after the reaction was initiated by addition of the R2 reagent (measuring points 23 to 26) to calculate the absorbance change per minute (ΔmAbs/min), and the Lp-PLA2 activity value (nmol/min/mL) was calculated according to the previous formula. The values for absorbance change per minute (sensitivity) (ΔmAbs/min) and the Lp-PLA2 activity values (nmol/min/mL) at each pH are shown in Tables 1 and 2.
(§2) 5 μL of sample was mixed with 150 μL of the R1 reagent, and incubated for 5 minutes at 37° C. (measuring points 1 to 15), after which 100 μL of the R2 reagent was added to initiate a reaction (measuring point 16). The absorbance of water (blank) at the same measuring points was subtracted from the absorbance of the sample about 3.5 to 4.5 minutes after the reaction was initiated by addition of the R2 reagent (measuring points 27 to 30) to calculate the absorbance change per minute (ΔmAbs/min), and the Lp-PLA2 activity value (nmol/min/mL) was calculated according to the previous formula. The values for absorbance change per minute (sensitivity) (ΔmAbs/min) and Lp-PLA2 activity (nmol/min/mL) and the relative activity for each substrate given 100 as the Lp-PLA2 activity value for PAF(C16) are shown in Tables 19 to 24.
Each sample was mixed with 160 μL of the R1 reagent, and incubated for 5 minutes at 37° C., (measuring points 1 to 15), after which 40 μL of the R2 reagent was added to initiate the reaction (measuring point 16). The absorbance of water (blank) at the same measuring points was subtracted from the absorbance of the sample about 3.5 to 4.5 minutes after the reaction was initiated by addition of the R2 reagent (measuring points 27 to 30) to calculate the absorbance change per minute (ΔmAbs/min), and the Lp-PLA2 activity value (nmol/min/mL) was calculated according to the previous formula. […]
as §1, with “(measuring” for “4 μL of the sample was mixed with 160 μL of the R1 reagent, and incubated for 5 minutes at 37° C. (measuring”, “100” for “40”, “3.5” for “3.6”, “29” for “30”, “32)” for “33)”

[2] = target: T2, rLp-PLA2 (Homo sapiens, UniProt Q13093, I42M); experiment: Lp-PLA2 activity measurement with reagents of the invention, recombinant Lp-PLA2 as sample; settings: Example 9, sample rLp-PLA2 (0.017 mg/mL); for Lp-PLA2 activity value / absorbance change per minute (sensitivity): 10 mM substrate in R2; for Relative activity: PAF(C16) = 100
T2 construct: histidine tag (from vector pET-19b) (N); made in house; host or cells: E. coli BL21(DE3), plasmid Lp-PLA2/pET-19b
T2 sequence (Q13093 42-441 I42M): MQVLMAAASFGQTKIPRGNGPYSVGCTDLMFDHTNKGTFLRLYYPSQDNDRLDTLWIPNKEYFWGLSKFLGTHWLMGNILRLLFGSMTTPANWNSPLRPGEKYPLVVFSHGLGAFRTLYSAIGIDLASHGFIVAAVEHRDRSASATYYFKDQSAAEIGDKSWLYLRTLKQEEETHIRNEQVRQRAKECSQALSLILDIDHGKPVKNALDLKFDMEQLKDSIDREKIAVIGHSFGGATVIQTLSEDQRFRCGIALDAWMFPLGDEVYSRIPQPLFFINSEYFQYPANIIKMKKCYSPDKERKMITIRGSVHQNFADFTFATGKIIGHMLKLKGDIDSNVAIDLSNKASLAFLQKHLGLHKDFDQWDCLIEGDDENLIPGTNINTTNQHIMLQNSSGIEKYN
Experimental: The recombinant Lp-PLA2 (rLp-PLA2) used in these examples was prepared in accordance with Reference Examples 4 to 6 based on the information disclosed in J. Biol. Chem., Oct. 27, 1995, No. 43, Vol. 270, pp. 25481-25487.
A gene optimized for E. coli (matched to E. coli codon usage) was synthesized (GenScript (NJ, USA)) based on the sequence data for a human Lp-PLA2 gene. Using the synthesized DNA as a template, a roughly 1200 bp PCR product was obtained by PCR using KOD FX (Toyobo Co., Ltd.) using as the sense primer the nucleotide sequence of SEQ ID NO: 5 in which the 42nd isoleucine was changed to the sequence of the initial methionine, with the nucleotide sequence of SEQ ID NO: 6 as the antisense primer. The resulting PCR product was digested with NdeI (Takara Bio Inc.) and BamHI (Takara Bio Inc.), and inserted into the NdeI-BamHI site of the expression vector pET-19b (Novagen) to obtain an Lp-PLA2/pET-19b expression plasmid. This expression plasmid was transformed into One shot BL21(DE3) Chemically Competent E. coli, to obtain a transformant called Lp-PLA2/pET-19b/BL21(DE3) comprising a recombinant vector containing a polynucleotide consisting of a nucleotide sequence encoding Lp-PLA2 with a histidine tag from the vector added at the N-terminus.
as §2

[3] = PLD activity (kcat/Km) of lyso-PAF-PLD and site-specific mutants against lyso-PAF; settings: substrate lyso-PAF 0 to 5 mM, pH 7.5, 37° C.
Experimental: As a result, the pre-mutation PLD activity was 1385 (s^−1 mM^−1), but the mutant having G substituted for the M in the 45th position of SEQ ID NO: 9 (called M45G) and the similarly-named mutants M45A, M45L and M45D had PLD activities of 3059, 11411, 3284 and 4557 (s^−1mM^−1), respectively.
As a result, the PLD activity was 1385 (s^−1mM^−1) before the mutation, but the mutant having G substituted for F in the 257th position of […] (called F257G) and the similarly-named mutants F257E, F257R, F257K and F257W had PLD activities 1200, 1000, 1080, 1020 and 1320, respectively.
The PLD activity of the lyso-PAF-PLD mutants obtained by site-specific mutations was measured as follows. 1.211 g of Tris, 14.7 mg of calcium chloride dihydrate (Wako Pure Chemical Industries, Ltd.), 20 mL of lyso-PAF solution and 2 mL of 1% TODB solution were dissolved in 60 mL of purified water, the pH was adjusted to 7.5 (25° C.) with 1 N HCl, 4 mL of 100 U/mL choline oxidase, 4 mL of 100 U/mL peroxidase solution and 2 mL of 1% 4-AA solution were added and dissolved, and the total was brought to 100 mL with purified water to obtain a PLD activity measurement reagent for lyso-PAF (reaction reagent mixture). The lyso-PAF solution was adjusted so that the lyso-PAF concentration in the reaction reagent mixture was 0 to 5 mM. 3 mL of the reaction reagent mixture was pre-heated for 5 minutes at 37° C., and mixed with 50 μL of a solution of the lyso-PAF-PLD mutant with the introduced site-specific mutation diluted appropriately with 10 mM Tris-HCl (pH 7.5) to initiate a reaction, and the change in absorbance at 546 nm was measured for 1 minute between 8 and 9 minutes after initiation of the reaction. The activity value (μmole/min) was calculated given 36 (cm^2/μmole) as the millimolar extinction coefficient of the quinoneimine dye at 546 nm. The protein content (mg/mL) was calculated by the Bradford method using bovine serum albumin as the standard. Km and kcat were calculated by the Michaelis-Menten formula in accordance with the methods described in the aforementioned Theory and Practice on Enzymes and other Proteins [Tanpakushitsu/Kouso no kiso jikkenhou] and in Voet's Basic Biochemistry (Fourth Ed.) and the like. For purposes of calculation, the molecular weight of the enzyme was given as 33583.

Molecule: CCCCCCCCCCCCCCCCOC[C@H](COP(=O)([O-])OCC[N+](C)(C)C)OC(C)=O [PAF(C16), 1-O-Hexadecyl-2-acetyl-sn-glycero-3-phosphocholine]
Lp-PLA2 activity value ([1]; sample Citrated pooled plasma): 33.3 nmol/min/mL
absorbance change per minute (sensitivity) ([1]; sample Citrated pooled plasma): 23.5 ΔmAbs/min
Lp-PLA2 activity value ([1]; sample Heparin pooled plasma): 44.3 nmol/min/mL
absorbance change per minute (sensitivity) ([1]; sample Heparin pooled plasma): 31.3 ΔmAbs/min
Lp-PLA2 activity value ([1]; sample Individual serum 16): 94.8 nmol/min/mL
absorbance change per minute (sensitivity) ([1]; sample Individual serum 16): 66.9 ΔmAbs/min
Lp-PLA2 activity value ([1]; sample Pooled serum C): 40.8 nmol/min/mL
absorbance change per minute (sensitivity) ([1]; sample Pooled serum C): 28.8 ΔmAbs/min
Lp-PLA2 activity value ([1]; sample Pooled serum J042): 40.8 nmol/min/mL
absorbance change per minute (sensitivity) ([1]; sample Pooled serum J042): 28.8 ΔmAbs/min
Relative activity ([1]; sample Citrated pooled plasma): 100%
Relative activity ([1]; sample Heparin pooled plasma): 100%
Relative activity ([1]; sample Individual serum 16): 100%
Relative activity ([1]; sample Pooled serum C): 100%
Relative activity ([1]; sample Pooled serum J042): 100%
Lp-PLA2 activity value [2]: 132.3 nmol/min/mL
absorbance change per minute (sensitivity) [2]: 93.4 ΔmAbs/min
Relative activity [2]: 100%

Lp-PLA2 activity value ([1]; sample Citrated pooled plasma): 27.8 nmol/min/mL
absorbance change per minute (sensitivity) ([1]; sample Citrated pooled plasma): 19.6 ΔmAbs/min
Lp-PLA2 activity value ([1]; sample Heparin pooled plasma): 38.7 nmol/min/mL
absorbance change per minute (sensitivity) ([1]; sample Heparin pooled plasma): 27.3 ΔmAbs/min
Lp-PLA2 activity value ([1]; sample Individual serum 16): 79.3 nmol/min/mL
absorbance change per minute (sensitivity) ([1]; sample Individual serum 16): 56.0 ΔmAbs/min
Lp-PLA2 activity value ([1]; sample Pooled serum C): 35.6 nmol/min/mL
absorbance change per minute (sensitivity) ([1]; sample Pooled serum C): 25.1 ΔmAbs/min
Lp-PLA2 activity value ([1]; sample Pooled serum J042): 35.4 nmol/min/mL
absorbance change per minute (sensitivity) ([1]; sample Pooled serum J042): 25.0 ΔmAbs/min
Relative activity ([1]; sample Citrated pooled plasma): 83%
Relative activity ([1]; sample Heparin pooled plasma): 87%
Relative activity ([1]; sample Individual serum 16): 84%
Relative activity ([1]; sample Pooled serum C): 87%
Relative activity ([1]; sample Pooled serum J042): 87%
Lp-PLA2 activity value [2]: 74.1 nmol/min/mL
absorbance change per minute (sensitivity) [2]: 52.3 ΔmAbs/min
Relative activity [2]: 56%
Molecule: CCCCCCCCCCCCCCCCCCOC[C@H](COP(=O)([O-])OCC[N+](C)(C)C)OC(C)=O [PAF(C18), 1-O-Octadecyl-2-acetyl-sn-glycero-3-phosphocholine]

B1: M45G: lyso-PAF-PLD mutant, G substituted for M in the 45th position of SEQ ID NO: 9 (protein)
chain: MTTRTTDNPWLDARVLNMAHAGGENEAPANTLYAFKRAVKLGANGLELDVQSTKDDQLVVIHNATVDQTTDGTGKVRDLTFEQVHELDAAYNFIPGRHAVPGEPPESYPLRGVRTGEKKPPPGYQPSDFAIPKLADVLEAFPRTPINIEIKGTSDADIPSFLHNAKLLARLLKKTGRTDFIVTSFNDLAVAKFHLLAPDIPIAPGMAGLAAYFLLGVKPMHGTVALQIPVRYQGLEIATPEFIRRAHADGYAVHVWFSGTAPDDEATYNRIIDSCADGLMPAYPALLERILDERGIERPGRPGVDPCG
Km [3]: 27 µM
kcat [3]: 82 s⁻¹

B2: M45A: lyso-PAF-PLD mutant, A substituted for M in the 45th position of SEQ ID NO: 9 (protein)
chain: B1 chain with G45A
Km [3]: 12 µM
kcat [3]: 136 s⁻¹
